Test results taken from the Kinase Knowledgebase extract (Sharma et al. 2016).

Biological target: CDK2 (human) (UniProt P24941)
Assay: Enzyme Assay

Compound	IC50
COc1ccc(NC(=O)c2ccc(C(=O)Nc3ccc4nc(C)ccc4c3)s2)c(C)c1	≥ 40 µM
O=C(Nc1ccc(-n2cncn2)cc1)c1ccc(C(=O)N2CCCC(c3ccccc3)C2)s1 (centres undefined)	≥ 40 µM
COc1cccc(NC(=O)c2ccc(C(=O)Nc3ccc(-n4cncn4)cc3)s2)c1	≥ 40 µM
O=C(NC[C@@H]1CCCO1)c1ccc(C(=O)Nc2ccc(-n3cncn3)cc2)s1	≥ 40 µM
O=C(Nc1ccc(-n2cncn2)cc1)c1ccc(NC(=O)C2CCCCC2)o1	≥ 40 µM
COc1ccc(NC(=O)c2ccc(C(=O)Nc3ccc(N4CCN(C)CC4)cc3)s2)c(C)c1	≥ 40 µM
O=C(Nc1ccc(-n2cncn2)c(F)c1)c1ccc(C(=O)Nc2ccccc2-c2ccccc2)s1	1 to 40 µM
Cc1cc(CN(C)C)ccc1NC(=O)c1ccc(C(=O)Nc2ccc(-n3cncn3)c(F)c2)s1	1 to 40 µM
O=C(Nc1ccc(-n2cncn2)cc1)c1ccc(C(=O)N[C@@H]2CC3CCC2C3)s1 (some centres undefined)	≥ 40 µM
COc1cccc(NC(=O)c2ccc(C(=O)Nc3ccc(-n4cncn4)cc3)s2)c1OC	1 to 40 µM
Cc1ccccc1C(=O)Nc1ccc(C(=O)Nc2ccc(-n3cncn3)cc2)s1	≤ 1 µM
COc1ccc(NC(=O)c2ccc(C(=O)Nc3ccc(N4CCCCC4)cc3)s2)c(C)c1	≥ 40 µM
O=C(NCCc1ccccc1)c1ccc(C(=O)Nc2ccc(-n3cncn3)cc2)s1	≥ 40 µM
C[C@@H](NC(=O)c1ccc(C(=O)Nc2ccc(-n3cncn3)cc2)s1)C1CCCCC1	≥ 40 µM
O=C(Nc1ccc(-n2cncn2)cc1)c1ccc(NC(=O)C2CCCCC2)s1	≤ 1 µM
COc1ccc(NC(=O)c2ccc(C(=O)Nc3ccc(-n4cncn4)c(F)c3)o2)c(C)c1	≤ 1 µM
CNC(=O)c1ccc(C(=O)Nc2ccc(-n3cncn3)c(F)c2)o1	≥ 40 µM
COc1ccc(Cl)cc1NC(=O)c1ccc(C(=O)Nc2ccc(-n3cncn3)cc2)s1	1 to 40 µM
O=C(Nc1ccc(-n2cncn2)cc1)c1ccc(C(=O)N[C@@H]2CCc3ccccc32)s1	≥ 40 µM
CN1CCCC1CCNC(=O)c1ccc(C(=O)Nc2ccc(-n3cncn3)cc2)s1 (centres undefined)	≥ 40 µM

Compound	IC50
Cc1cc(N2CCN(C)CC2)ccc1NC(=O)c1ccc(C(=O)Nc2ccc(-n3cncn3)cc2)s1	≤ 1 µM
COC(=O)c1ccc(NC(=O)c2ccc(C(=O)Nc3ccc(OC)cc3C)s2)cc1	≥ 40 µM
CNCc1ccc(NC(=O)c2ccc(C(=O)Nc3ccc(-n4cncn4)cc3)s2)c(C)c1	1 to 40 µM
COc1ccc(NC(=O)c2ccc(C(=O)Nc3ccc(OCCN(C)C)cc3)s2)c(C)c1	≥ 40 µM
CC(C)[C@@H](CO)NC(=O)c1ccc(C(=O)Nc2ccc(-n3cncn3)cc2)s1	≥ 40 µM
NS(=O)(=O)c1ccc(NC(=O)c2ccc(C(=O)Nc3ccc(-n4cncn4)cc3)s2)cc1	≥ 40 µM
Cc1cc(N2CCOCC2)ccc1NC(=O)c1ccc(C(=O)Nc2ccc(-n3cncn3)cc2)s1	≤ 1 µM
O=C(NC[C@H](O)c1ccccc1)c1ccc(C(=O)Nc2ccc(-n3cncn3)cc2)s1	≥ 40 µM
COc1ccc(NC(=O)c2ccc(C(=O)Nc3ccc(C#N)cc3)s2)c(C)c1	≥ 40 µM
C[C@H](O)CNC(=O)c1ccc(C(=O)Nc2ccc(-n3cncn3)cc2)s1	≥ 40 µM
C[C@H](NC(=O)c1ccc(C(=O)Nc2ccc(-n3cncn3)c(F)c2)o1)C1CCCCC1	≤ 1 µM
O=C(Nc1ccc(C(=O)Nc2ccc(-n3cncn3)cc2)s1)c1ccncc1	≥ 40 µM
COc1ccc(NC(=O)c2ccc(C(=O)Nc3ccc4c(cnn4C)c3)s2)c(C)c1	≥ 40 µM
COc1ccc(NC(=O)c2ccc(C(=O)Nc3ccc(N4CCNCC4)cc3)s2)c(C)c1	≥ 40 µM
COc1ccc(NC(=O)c2ccc(C(=O)Nc3ccc4nccnc4c3)s2)c(C)c1	≥ 40 µM
Cc1cc(N[C@H]2CCNC2)ccc1NC(=O)c1ccc(C(=O)Nc2ccc(-n3cncn3)cc2)s1	≤ 1 µM
O=C(Nc1ccc(-n2cncn2)c(F)c1)c1ccc(C(=O)Nc2ccccc2C(F)(F)F)s1	1 to 40 µM
O=C(Nc1ccc(-n2cncn2)cc1)c1ccc(C(=O)Nc2ccc3c(c2)C(=O)OC3)s1	≥ 40 µM
O=C(Nc1ccc(C(=O)Nc2ccc(-n3cncn3)cc2)o1)c1ccccc1	≥ 40 µM
